Columns and labels:
[1] = system: croton oil ear edema; experiment: Croton oil ear edema; type: in vivo, Mice (male, CD-1); settings: for Inhibition of ear edema (%): 1.6 μg, applied to ear 2 hrs before croton oil
Method: Mice (male, CD-1) were made into different groups. A method similar to one reported in the literature was used. Test compounds were dissolved in pyridine-water-acetone (4:2:14) solution 10 μl of this solution of compound or vehicle solution was applied to the left ear of the mice. The right ear of each mouse was applied simultaneously with 10 μl of pyridine: water: acetone (4:2:14) solution. After 2 hrs of compound or vehicle application, 10 μl of croton oil solution was applied to the left ear of all animals. After 6 hr of croton oil treatment the animals were sacrificed; ears were excised and weighed separately.

[2] = system: cotton pellet granuloma; experiment: Cotton pellet granuloma test; type: in vivo, SD rats; settings: 100 mcg/pellet
Method: SD rats were used for assessing anti-inflammatory activity of test compound using cotton pellet granuloma method. Sterilized cotton pellets weighing 20 mg were prepared. Test compounds were dissolved in acetone so as to get the required quantity for each cotton pellet in 500 μl. Different pellets were impregnated with 500 μl of acetone to contain required quantity of test compounds and allowed to dry. Vehicle control pellets were impregnated with 500 μl acetone.
Rats were made into different groups. Two cotton pellets were surgically implanted into the scapular region of each rat. On sixth day of such implantation, pellets along with granuloma were taken out. Thymus gland was also separated from each animal and weighed. The pellets with granuloma were dried for 20 hrs at 60° C. and weighed. Mean weights of dry granuloma and thymus, body weight gain/100 g body weights were calculated.

[3] = Sephadex-induced lung edema; type: in vivo, SD rats; settings: Sprague-Dawley, rat, thymus, other: intratracheal; i.t., 24 hrs and 2 hrs prior to Sephadex; read-out: ED50 Thymus involution
Method: (§1) Sephadex® G-200 was prepared in sterile saline (10 mg/ml) and allowed to swell for at least 3 days at room temperature. Test compounds were administered intratracheally at 24 hrs and 2 hrs prior to intratracheal administration of Sephadex® (5 mg/kg) under light ether anesthesia. Vehicle control animals were administered vehicle instead of Sephadex®. At 24 hr after Sephadex® instillation, lung and thymus were excised from individual animals and weighed. Wet weights of lungs and thymus were corrected for 100 g of initial body weight. The percentage increase in lung weight caused by Sephadex® and its inhibitions by the compounds, were calculated. The percentage inhibitions of thymus compared to vehicle control group were also calculated

[4] = system: Sephadex-induced lung edema; experiment: Sephadex-induced lung edema; type: in vivo, SD rats; settings: Rattus norvegicus; i.t., 24 hrs and 2 hrs prior to Sephadex; read-out: ED50 Lung edema inhibition
Method: as §1

[5] = system: liver glycogen deposition; experiment: Liver glycogen deposition; type: in vivo, Male Sprague Dawley rats; settings: 3 mg/kg intratracheal, 2 doses 24 hrs apart, adrenalectomized rats
[6] = system: liver glycogen deposition; experiment: Liver glycogen deposition; type: in vivo, Male Sprague Dawley rats; settings: 3 mg/kg intratracheal, 2 doses 24 hrs apart, adrenalectomized rats; remark: listed apart in the source
Method: Male Sprague Dawley rats, weighing 190-220 g were bilaterally adrenalectomized and maintained on 0.9% saline solution throughout the experiment. On day 5th and 6th of adrenalectomy, animals were made into different groups, test compounds prepared in cold saline (sonicated for 30 min) were instilled intratracheally 2 doses @3 mg/kg, 24 hrs apart. At 15 hrs after the last treatment, animals were sacrificed and livers were excised and weighed. The glycogen content of the livers was determined by anthrone method. Briefly, a weighed quantity of liver tissue was homogenized with 5% trichloroacetic acid, supernatant mixed with ethanol and kept overnight for precipitation. The glycogen thus extracted was estimated as glucose generated after acid hydrolysis by addition of anthrone reagent at 620 nm. Glycogen content was expressed as mg/100 g liver.

[7] = molecular target: T1, Human Glucocorticoid receptor (Homo sapiens, UniProt P04150); experiment: Human glucocorticoid receptor binding (in vitro), [3H]dexamethasone radioligand; settings: at 0.1 μM
T1 construct: expressed in transfected cells; host or cells: human HeLa cells
T1 sequence (P04150 1-777): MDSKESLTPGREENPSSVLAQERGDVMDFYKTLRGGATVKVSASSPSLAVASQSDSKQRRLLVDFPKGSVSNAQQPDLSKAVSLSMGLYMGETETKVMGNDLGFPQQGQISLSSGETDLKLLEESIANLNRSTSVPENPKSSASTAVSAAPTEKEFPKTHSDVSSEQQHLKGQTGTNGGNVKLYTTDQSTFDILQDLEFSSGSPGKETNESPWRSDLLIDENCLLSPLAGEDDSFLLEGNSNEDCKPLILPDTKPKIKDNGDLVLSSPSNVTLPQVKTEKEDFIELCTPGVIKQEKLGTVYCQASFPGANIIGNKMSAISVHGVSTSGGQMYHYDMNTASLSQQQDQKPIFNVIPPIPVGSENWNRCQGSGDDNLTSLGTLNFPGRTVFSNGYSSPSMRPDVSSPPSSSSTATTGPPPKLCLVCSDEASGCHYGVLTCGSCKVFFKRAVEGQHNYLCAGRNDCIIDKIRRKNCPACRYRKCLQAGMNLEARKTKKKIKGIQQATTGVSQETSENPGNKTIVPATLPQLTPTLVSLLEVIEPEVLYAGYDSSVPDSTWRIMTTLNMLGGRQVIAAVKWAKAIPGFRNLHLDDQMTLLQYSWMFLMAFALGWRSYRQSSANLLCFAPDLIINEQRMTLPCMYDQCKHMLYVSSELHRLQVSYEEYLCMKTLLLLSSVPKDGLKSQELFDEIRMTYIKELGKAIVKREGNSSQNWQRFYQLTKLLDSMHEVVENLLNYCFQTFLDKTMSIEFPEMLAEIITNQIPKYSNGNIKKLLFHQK
Method: The activity of test compounds on glucocorticoid receptor was assessed using radioligand binding assays.
The % inhibition was evaluated using a single concentration of test compound and the corresponding radiolabeled ligand. Results are presented as the percent inhibition of specific binding. The values are average of duplicate determinations for each concentration.

[8] = system: ovalbumin-induced increase in intranasal pressure; experiment: Ovalbumin-induced increase in intranasal pressure; type: in vivo, guinea pigs; settings: intranasal instillation 24 hr and 2 hr prior to ovalbumin challenge; FIG. 2
Method: Animals sensitized with ovalbumin as described above were used for experiments determining intranasal pressure. Intranasal instillation of compound of formula I, fluticasone propionate or placebo was done 24 hr and 2 hr prior to challenge with ovalbumin. The nasopharynx was catheterized with a PE cannula, one end of which was attached to pressure transducer and other to the nebulizer. Ovalbumin (5%) was nebulized into the nasal cavity for 10 min. The changes in intranasal pressure were recorded for following 45 min and differential pressure (dP) was calculated.

[9] = system: skin atrophy and systemic side effects; experiment: Skin atrophy and systemic side effects on topical application; type: in vivo, Male SD rats; settings: dermal, daily 14 days
Source text: Male SD rats were lightly anesthetized with isoflurane. Bilaterally paired sites were marked on the back, one on each side of the flank. One of the sites was applied with an appropriate dose of compound of the present invention and fluticasone propionate dissolved in the acetone, daily for a period of 14 days. Contralateral site served as solvent treated controls and received acetone. Body weights were monitored on 0-14 days. On day 15, twenty-four hours after the last applications, blood was collected from the tail vein to determine total and differential blood cell count. The animals were euthanized and full-thickness skin from shaved area was punched to get 15 mm diameter plugs. The subcutaneous fat and muscle was removed and the punched plug was weighed. Thymus weights of each animal were also determined as a marker of systemic corticosteroid activity

C[C@@H]1CC2C3C[C@H](F)C4=CC(=O)C=C[C@]4(C)[C@@]3(F)[C@@H](O)C[C@]2(C)[C@@]1(OC(=O)c1ccco1)C(=O)SCC#CCO (stereo partly drawn) [formula II, S-(4-Hydroxy-but-2-ynyl)6α,9α-difluoro-17α-(furan-2-yl)carbonyloxy-11β-hydroxy-16α-methyl-3-oxoandrosta-1,4-diene-17β-carbothioate]
potency in topical in vivo anti-inflammatory models such as croton oil ear edema ([1]; compared with compound of the present invention): significantly less potent

C[C@@H]1C[C@H]2[C@@H]3CCC4=CC(=O)C=C[C@]4(C)[C@@]3(F)[C@@H](O)C[C@]2(C)[C@@]1(O)C(=O)CO [Dexamethasone]
Inhibition of ear edema (%) [1]: 50.05%

CC(C)C(=O)OCC(=O)[C@@]12O[C@H](C3CCCCC3)O[C@@H]1C[C@H]1[C@@H]3CCC4=CC(=O)C=C[C@]4(C)[C@H]3[C@@H](O)C[C@@]12C [Ciclesonide]
Mean % Inhibition of Granuloma A [2]: 63.38%
Thymus wt. (% Decrease) B [2]: 15.16%
ED50 at 24 h [3]: 3.13 mg/kg
ED50 [4]: 0.388 mg/kg
% Inhibition of thymus [5]: 61.34%
Glycogen content [6]: 263.96 mg/100 g liver

C[C@@H]1CC2C3C[C@H](F)C4=CC(=O)C=C[C@]4(C)[C@@]3(F)[C@@H](O)C[C@]2(C)[C@@]1(OC(=O)c1ccco1)C(=O)O (stereo partly shown) [formula III]
inhibition at 0.1 µM [7]: 2%

C[C@@H]1C[C@H]2[C@@H]3CCC4=CC(=O)C=C[C@]4(C)[C@@]3(Cl)[C@@H](O)C[C@]2(C)[C@@]1(OC(=O)c1ccco1)C(=O)CCl [Mometasone furoate]
% Inhibition of thymus [5]: 43.51%
Glycogen content [6]: 1117.32 mg/100 g liver

CCCC1O[C@@H]2C[C@H]3[C@@H]4CCC5=CC(=O)C=C[C@]5(C)[C@H]4[C@@H](O)C[C@]3(C)[C@]2(C(=O)CO)O1 (stereo partly shown) [Budesonide]
ED50 at 24 h [3]: 0.68 mg/kg
% Inhibition of thymus [5]: 65.02%
Glycogen content [6]: 552.77 mg/100 g liver

CCC(=O)O[C@]1(C(=O)SCF)[C@H](C)C[C@H]2[C@@H]3C[C@H](F)C4=CC(=O)C=C[C@]4(C)[C@@]3(F)[C@@H](O)C[C@@]21C [Fluticasone propionate]
inhibition of intranasal pressure [8]: equivalent inhibition
% Body Weight Gain ([9]; 6 μg/site): 68.1%
% Inhibition Lymphocytes ([9]; 6 μg/site): 31.7%
% Inhibition Neutrophils ([9]; 6 μg/site): 25.8%
% Inhibition Skin weight ([9]; 6 μg/site): 25.3%
% Inhibition Thymus ([9]; 6 μg/site): 2.0%
% Inhibition Total leukocyt ([9]; 6 μg/site): 31.4%
% Body Weight Gain ([9]; 18 μg/site): 67.4%
% Inhibition Lymphocytes ([9]; 18 μg/site): 15.9%
% Inhibition Neutrophils ([9]; 18 μg/site): 24.5%
% Inhibition Skin weight ([9]; 18 μg/site): 20.8%
% Inhibition Thymus ([9]; 18 μg/site): 5.4%
% Inhibition Total leukocyt ([9]; 18 μg/site): 17.5%
% Body Weight Gain ([9]; 60 μg/site): 61.9%
% Inhibition Lymphocytes ([9]; 60 μg/site): 15.6%
% Inhibition Neutrophils ([9]; 60 μg/site): 14.5%
% Inhibition Skin weight ([9]; 60 μg/site): 27.9%
% Inhibition Thymus ([9]; 60 μg/site): 23.0%
% Inhibition Total leukocyt ([9]; 60 μg/site): 15.2%
% Body Weight Gain ([9]; 180 μg/site): 42.5%
% Inhibition Lymphocytes ([9]; 180 μg/site): 34.1%
% Inhibition Neutrophils ([9]; 180 μg/site): 24.6%
% Inhibition Skin weight ([9]; 180 μg/site): 30.0%
% Inhibition Thymus ([9]; 180 μg/site): 55.0%
% Inhibition Total leukocyt ([9]; 180 μg/site): 32.7%
Mean % Inhibition of Granuloma A [2]: 66.04%
Thymus wt. (% Decrease) B [2]: 73.56%
ED50 at 24 h [3]: 0.36 mg/kg
ED50 [4]: 0.086 mg/kg
Inhibition of ear edema (%) [1]: 81.09%
% Inhibition of thymus [5]: 70.17%
Glycogen content [6]: 1514.65 mg/100 g liver

From patent US9458187B2, “Methods for treatment of inflammatory conditions using S-[4-(3-fleuro-3-methylbutyryloxy)but-2-ynyl]6α, 9α-difluoro-17α-(furan-2-yl) carbonyloxy-11β-hydroxy-16α-methyl-3-oxoandrosta-1,4-diene-17β-carbothioate” (Sun Pharma Advanced Research Company Limited, priority 2013, dated 2016)
